Results taken from patent US20070191299A1, “Extension Of The Expression of Transgenic Proteins By Immunomodulation” (priority 1997, published 2007).

Key:
[1] = system: human alpha 1-antitrypsin reporter gene expression; experiment: Serum level of human α1-antitrypsin reporter after adenovirus administration (Example 2); format: in vivo; design: average serum level of human α1-antitrypsin: unit not given here; conditions: NMRI mice
Description: (§1) On day 0, all mice were administered-a dose of 1×10^10 adenoviruses via the tail vein. The recombinant adenoviruses carry the gene for human alpha 1-antitrypsin as a reporter gene found in the serum. This gene has proven to be a practicable reporter, since it is not antigenic in the mouse, but nevertheless can be differentiated from murine alpha 1-antitrypsin using a specific antibody. The half-life of the antiprotease is approximately 3-4 days, so that the serum level reflects the current synthesis capacity of the liver very well.
(§2) The total collective was subdivided into five groups of 4 animals each, which were treated as follows: • 1st group: control group—no immunosuppressant treatment, administration of saline solution i.p. for the period of 5 days after virus administration. • 2nd . group: FK 506 group—administration of 1 mg/kg/day of FK 506 i.p. beginning 1 day before virus administration and then for a period of 5 days. • 3rd group: cyclosporin A group—administration of 20 mg/kg/day i.p. beginning 1 day before virus administration and then for a period of 5 days. • 4th group: DSG group—administration of 10 mg/kg/day i.p. beginning 1 day before virus administration and then for the period of 5 days. • 5th group: DSG++ group—administration of 10 mg/kg/day i.p. beginning 1 day before virus administration and then daily for the period of five days and then twice weekly for the period of 150 days.
(§3) NMRI mice were used, since these mice, due to their genetic heterogeneity, develop an immunological reaction pattern which approaches that of a human population more closely than pure inbred strains; the price is an increased variability in the immunological reactivity. In spite of this, the individual groups develop significant reaction patterns.

[2] = system: antibody load against viral proteins; experiment: Mean antibody titer against viral proteins after adenovirus administration (Example 2); format: in vivo; conditions: NMRI mice
Description: as §1, §2, §3
The quantitative factor 15 days after discontinuing DSG is approximately 1.8. Continuous treatment (2× weekly) is no longer able to increase this effect dramatically. […] Even the transient administration of DSG reduces the antibody response in comparison with the control by more than 60% with, at the same time, a markedly positive effect on expression.

[3] = system: reporter gene β-galactosidase expression in the liver; experiment: Reporter gene (β-galactosidase) expression in the liver after recombinant adenovirus administration (Example 1); format: in vivo, mice
[4] = system: antibodies after recombinant adenovirus vector administration; experiment: Formation of antibodies after vector administration (Example 1); format: in vivo; conditions: mice; cyclosporin A 50-100 mg/kg/day, DSG 10 mg/kg/day for 21 days after recombinant adenovirus
Description: Cyclosporin A (50-100 mg/kg/day) and DSG (10 mg/kg/day) was administered to the mice over a period of 21 days after administration of a recombinant adenovirus (reporter gene β-galactosidase; Bett et al. Proc. Natl. Acad. Sci. USA, 91 (1994), pages 8802-8806).
In the control group, it was possible to detect the formation of antibodies even 5 days after vector administration.

[5] = day 5, i.p. from 1 day before virus then for 5 days (FK 506 1, cyclosporin A 20, DSG 10 mg/kg/day)
[6] = day 10, i.p. from 1 day before virus then for 5 days (FK 506 1, cyclosporin A 20, DSG 10 mg/kg/day)
[7] = day 20, i.p. from 1 day before virus then for 5 days (FK 506 1, cyclosporin A 20, DSG 10 mg/kg/day)
[8] = day 30, i.p. from 1 day before virus then for 5 days (FK 506 1, cyclosporin A 20, DSG 10 mg/kg/day)
[9] = day 60, i.p. from 1 day before virus then for 5 days (FK 506 1, cyclosporin A 20, DSG 10 mg/kg/day)
[10] = day 100, i.p. from 1 day before virus then for 5 days (FK 506 1, cyclosporin A 20, DSG 10 mg/kg/day)
[11] = day 150, i.p. from 1 day before virus then for 5 days (FK 506 1, cyclosporin A 20, DSG 10 mg/kg/day)
[12] = day 200, i.p. from 1 day before virus then for 5 days (FK 506 1, cyclosporin A 20, DSG 10 mg/kg/day)
[13] = mice treated with DSG only for 5 days after vector administration, 42nd day after vector administration
[14] = day 30, DSG++ group: 10 mg/kg/day i.p. from 1 day before virus, daily for five days, then twice weekly for 150 days
[15] = day 100, DSG++ group: 10 mg/kg/day i.p. from 1 day before virus, daily for five days, then twice weekly for 150 days
[16] = day 150, DSG++ group: 10 mg/kg/day i.p. from 1 day before virus, daily for five days, then twice weekly for 150 days
[17] = day 200, DSG++ group: 10 mg/kg/day i.p. from 1 day before virus, daily for five days, then twice weekly for 150 days

## C=CC[C@@H]1/C=C(\C)C[C@H](C)C[C@H](OC)[C@H]2O[C@@](O)(C(=O)C(=O)N3CCCC[C@H]3C(=O)O[C@H](/C(C)=C/[C@@H]3CC[C@@H](O)[C@H](OC)C3)[C@H](C)[C@@H](O)CC1=O)[C@H](C)C[C@@H]2OC [FK 506]
[1]; [5]
  average serum level of human α1-antitrypsin: 1725000
[1]; [6]
  average serum level of human α1-antitrypsin: 1278750
[1]; [7]
  average serum level of human α1-antitrypsin: 376250
[1]; [8]
  average serum level of human α1-antitrypsin: 17475
[1]; [9]
  average serum level of human α1-antitrypsin: 4258
[1]; [10]
  average serum level of human α1-antitrypsin: 313
[1]; [11]
  average serum level of human α1-antitrypsin: 1.5
[1]; [12]
  average serum level of human α1-antitrypsin: 1.5
[2]; [8]
  Mean antibody titer: 65536
[2]; [10]
  Mean antibody titer: 43832
[2]; [11]
  Mean antibody titer: 25149
[2]; [12]
  Mean antibody titer: 17710

## Cl.Cl.Cl.N=C(N)NCCCCCCC(=O)NC(O)C(=O)NCCCCNCCCN (stereo not shown) [DSG, 1-amino-19-guanidine-11-hydroxy-4,9,12-triazanondecane-10,13-dione trihydrochloride]
[3]; [13]
  proportion of animals with expression still measurable: approximately 50%
  reporter gene expression relative to the maximal expression: approximately 10%
[3]; mice, 21 days after discontinuing 21-day treatment (42 days after vector administration)
  reporter gene expression after discontinuing the immunosuppressants: a massive gene expression was still detectable
[3]; mice, cyclosporin A 50-100 mg/kg/day, DSG 10 mg/kg/day for 21 days after recombinant adenovirus, treatment period of 21 days
  reporter gene expression in the liver over the treatment period: continues undecreased
[4]
  antibody production: completely eliminated
[1]; 5-day treatment with DSG
  effect on antitrypsin expression: marked increase and prolongation of antitrypsin expression
[1]; 15 days after discontinuing DSG (5-day treatment, 10 mg/kg/day i.p.)
  quantitative factor (transgenic expression product of immunosuppressed group / nonimmunosuppressed control group): approximately 1.8
[1]; continuous DSG treatment (2× weekly) versus transient administration
  expression with continuous treatment compared with transient administration: only slightly increased
[1]; day 5, DSG++ group: 10 mg/kg/day i.p. from 1 day before virus, daily for five days, then twice weekly for 150 days
  average serum level of human α1-antitrypsin: 2775000
[1]; [5]
  average serum level of human α1-antitrypsin: 2775000
[1]; day 10, DSG++ group: 10 mg/kg/day i.p. from 1 day before virus, daily for five days, then twice weekly for 150 days
  average serum level of human α1-antitrypsin: 677500
[1]; [6]
  average serum level of human α1-antitrypsin: 1560000
[1]; day 20, DSG++ group: 10 mg/kg/day i.p. from 1 day before virus, daily for five days, then twice weekly for 150 days
  average serum level of human α1-antitrypsin: 1178750
[1]; [7]
  average serum level of human α1-antitrypsin: 1826250
[1]; [14]
  average serum level of human α1-antitrypsin: 1082500
[1]; [8]
  average serum level of human α1-antitrypsin: 1001250
[1]; day 60, DSG++ group: 10 mg/kg/day i.p. from 1 day before virus, daily for five days, then twice weekly for 150 days
  average serum level of human α1-antitrypsin: 297500
[1]; [9]
  average serum level of human α1-antitrypsin: 213500
[1]; [15]
  average serum level of human α1-antitrypsin: 68750
[1]; [10]
  average serum level of human α1-antitrypsin: 51750
[1]; [16]
  average serum level of human α1-antitrypsin: 17125
[1]; [11]
  average serum level of human α1-antitrypsin: 13125
[1]; [17]
  average serum level of human α1-antitrypsin: 14350
[1]; [12]
  average serum level of human α1-antitrypsin: 10625
[2]; continuous DSG treatment (2× weekly), after 150 days
  reduction of antibody load against viral proteins: approximately 90%
[2]; [14]
  Mean antibody titer: 13005
[2]; [8]
  Mean antibody titer: 26310
[2]; [15]
  Mean antibody titer: 11251
[2]; [10]
  Mean antibody titer: 31029
[2]; [16]
  Mean antibody titer: 7335
[2]; [11]
  Mean antibody titer: 25149
[2]; [17]
  Mean antibody titer: 9669
[2]; [12]
  Mean antibody titer: 20586
[2]; transient administration of DSG (5 days)
  reduction of antibody response in comparison with the control: more than 60%
